Assay results reported in patent US6956039B2, “Nitrogenous heterocylic compounds” (Millennium Pharmaceuticals, Inc., priority 2000, dated 2005).

Columns and labels:
β-PDGFR [1] = molecular target: T1, β-PDGFR (Homo sapiens, UniProt P09619); assay: MG63 phosphorylation assay (endogenous β-PDGFR phosphorylation, PDGF-BB stimulation with human plasma); format: cell-based; parameters: This assay is for measuring endogenous β-PDGFR phosphorylation in MG63 cells; endogenous in cells; host or cells: MG63 human osteosarcoma cells (ATCC); conditions: MG63 human osteosarcoma cells; PDGF-BB stimulation in presence of 45% human plasma; PDGF receptor phosphorylation; read-out: MG63 w/human plasma IC50
T1 sequence (P09619 33-1106): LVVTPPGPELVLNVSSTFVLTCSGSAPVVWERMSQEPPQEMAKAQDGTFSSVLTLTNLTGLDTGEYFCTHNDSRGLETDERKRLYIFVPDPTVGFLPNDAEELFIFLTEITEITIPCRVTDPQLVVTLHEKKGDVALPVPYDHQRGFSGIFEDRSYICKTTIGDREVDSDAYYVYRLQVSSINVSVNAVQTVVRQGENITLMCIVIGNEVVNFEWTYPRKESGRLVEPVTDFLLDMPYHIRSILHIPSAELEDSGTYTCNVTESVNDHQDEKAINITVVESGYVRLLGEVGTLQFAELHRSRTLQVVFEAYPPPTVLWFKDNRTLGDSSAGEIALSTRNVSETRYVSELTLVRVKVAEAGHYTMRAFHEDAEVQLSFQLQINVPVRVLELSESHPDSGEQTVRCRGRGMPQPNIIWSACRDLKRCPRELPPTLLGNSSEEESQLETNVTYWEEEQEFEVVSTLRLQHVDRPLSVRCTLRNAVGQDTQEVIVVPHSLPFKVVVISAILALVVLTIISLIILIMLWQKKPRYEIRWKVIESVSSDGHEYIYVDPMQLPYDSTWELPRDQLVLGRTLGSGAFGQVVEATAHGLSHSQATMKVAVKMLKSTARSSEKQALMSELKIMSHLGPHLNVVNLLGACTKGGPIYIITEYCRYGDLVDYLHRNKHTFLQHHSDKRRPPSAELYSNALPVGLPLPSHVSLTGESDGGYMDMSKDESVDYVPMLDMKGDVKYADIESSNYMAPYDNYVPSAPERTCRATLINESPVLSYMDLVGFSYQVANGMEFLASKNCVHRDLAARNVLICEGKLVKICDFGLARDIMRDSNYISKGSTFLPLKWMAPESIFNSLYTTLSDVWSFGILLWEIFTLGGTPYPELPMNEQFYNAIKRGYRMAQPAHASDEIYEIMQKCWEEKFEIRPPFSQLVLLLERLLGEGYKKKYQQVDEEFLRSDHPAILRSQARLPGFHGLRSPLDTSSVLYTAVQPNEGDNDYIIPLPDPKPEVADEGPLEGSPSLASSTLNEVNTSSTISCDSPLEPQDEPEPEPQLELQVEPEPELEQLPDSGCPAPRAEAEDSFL
Experimental: For the phosphorylation assay according to the invention, HR5 cells were grown to confluency in 96-well microtiter plates under standard tissue culture conditions, followed by serum-starvation for 16 hours. Quiescent cells were incubated at 37° C. without or with increasing concentrations of the test compound (0.01-30 uM) for 30 minutes followed by the addition of 8 nM PDGF BB for 10 minutes. Cells were lysed in 100 mM Tris, pH7.5, 750 mM NaCl, 0.5% Triton X-100, 10 mM sodium pyrophosphate, 50 mM NaF, 10 ug/ml aprotinin, 10 ug/ml leupeptin, 1 mM phenylmethylsulfonyl fluoride, 1 mM sodium vanadate, and the lysate was cleared by centrifugation at 15,000×g for 5 minutes. Clarified lysates were transferred into a second microtiter plate in which the wells were previously coated with 500 ng/well of 1B5B11 anti-β-PDGFR mAb, and then incubated for two hours at room temperature. After washing three times with binding buffer (0.3% gelatin, 25 mM Hepes pH 7.5, 100 mM NaCl, 0.01% Tween-20), 250 ng/ml of rabbit polyclonal anti-phosphotyrosine antibody (Transduction Laboratory) was added and plates were incubated at 37° C. for 60 minutes. […] Wells were washed prior to adding ABTS (Sigma), and the rate of substrate formation was monitored at 650 nm. […]

β-PDGFR [2] = molecular target: T1, β-PDGFR; assay: HR5 phosphorylation assay (CHO cells overexpressing human β-PDGFR); format: cell-based; parameters: host or cells: CHO cells (HR5 line); conditions: 8 nM PDGF BB for 10 minutes, PDGF receptor phosphorylation
Experimental: The HR5 cell line is a cell line of CHO cells engineered to overexpress human β-PDGFR, which cell line is available from the ATCC. The expression level of β-PDGFR in HR5 cells is around 5×10^4 receptor per cell. For the phosphorylation assay according to the invention, HR5 cells were grown to confluency in 96-well microtiter plates under standard tissue culture conditions, followed by serum-starvation for 16 hours. Quiescent cells were incubated at 37° C. without or with increasing concentrations of the test compound (0.01-30 uM) for 30 minutes followed by the addition of 8 nM PDGF BB for 10 minutes. Cells were lysed in 100 mM Tris, pH7.5, 750 mM NaCl, 0.5% Triton X-100, 10 mM sodium pyrophosphate, 50 mM NaF, 10 ug/ml aprotinin, 10 ug/ml leupeptin, 1 mM phenylmethylsulfonyl fluoride, 1 mM sodium vanadate, and the lysate was cleared by centrifugation at 15,000×g for 5 minutes. Clarified lysates were transferred into a second microtiter plate in which the wells were previously coated with 500 ng/well of 1B5B11 anti-β-PDGFR mAb, and then incubated for two hours at room temperature. […] Wells were washed prior to adding ABTS (Sigma), and the rate of substrate formation was monitored at 650 nm.

SMILES: c1nc(N2CCNCC2)c2ccc(OCCN3CCCCC3)cc2n1 [Example 1, 4-piperazinyl-7-(2-piperidylethoxy)quinazoline]
- IC50 (β-PDGFR [1]): 103 nM
- IC50 (β-PDGFR [2]): 150 nM
